19 compounds from article PMC6179041, “The insight of in vitro and in silico studies on cholinesterase inhibitors from the roots of Cimicifuga dahurica (Turcz.) Maxim” (Journal of Enzyme Inhibition and Medicinal Chemistry, 2018) can be followed below.

Entries after “also recorded” stand apart in the source; their conditions may differ. Read-outs that look alike come from different tables or passages of the source.

What is called IC50 is the concentration at which inhibition is half-maximal. The term Ki denotes a dissociation constant, usually derived from enzyme kinetics or from competition with a known ligand.

The target of test [1] is T1, AChE (Electrophorus electricus, UniProt O42275).
T1 construct: purchased Sigma-Aldrich C3389
T1 sequence (O42275 24-633): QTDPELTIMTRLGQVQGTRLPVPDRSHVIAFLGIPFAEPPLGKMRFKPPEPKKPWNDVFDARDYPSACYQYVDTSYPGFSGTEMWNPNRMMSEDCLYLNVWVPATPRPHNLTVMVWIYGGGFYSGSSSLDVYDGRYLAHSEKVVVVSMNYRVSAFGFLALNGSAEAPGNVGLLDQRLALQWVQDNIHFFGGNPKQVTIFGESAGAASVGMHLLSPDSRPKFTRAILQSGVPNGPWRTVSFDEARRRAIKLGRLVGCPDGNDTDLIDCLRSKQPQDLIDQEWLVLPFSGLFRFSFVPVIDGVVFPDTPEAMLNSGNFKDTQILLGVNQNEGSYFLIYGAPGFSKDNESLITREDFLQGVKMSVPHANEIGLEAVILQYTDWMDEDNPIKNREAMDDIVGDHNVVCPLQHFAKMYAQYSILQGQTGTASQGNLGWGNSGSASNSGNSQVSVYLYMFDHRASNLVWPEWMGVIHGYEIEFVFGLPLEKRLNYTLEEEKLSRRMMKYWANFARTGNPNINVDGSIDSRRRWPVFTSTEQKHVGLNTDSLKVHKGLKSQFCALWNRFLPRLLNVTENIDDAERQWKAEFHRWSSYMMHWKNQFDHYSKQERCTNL
Description: biochemical. Format: biochemical. As to conditions: for inhibition at 100 µM: read-out: AChE inhibitory activity at 100 μM (%).

Test [2] addresses BuChE (Equus caballus, UniProt P81908). Put plainly: biochemical. It is filed as biochemical. The conditions noted are these: for inhibition at 100 µM: read-out: BuChE inhibitory activity at 100 μM (%); for Binding mode (BuChE): Lineweaver-Burk plots.
Where [3] appears, read: 100 μM compound, mean ± SEM, tested three times.
[4] abbreviates: mean ± SEM, tested three times, read-out: BuChE IC50.
[5] abbreviates: mean ± SEM, tested three times, read-out: AChE IC50.
Setting [6] is: secondary replot, read-out: Ki (μM) on BuChE.

BuChE, sequence (P81908 whole entry): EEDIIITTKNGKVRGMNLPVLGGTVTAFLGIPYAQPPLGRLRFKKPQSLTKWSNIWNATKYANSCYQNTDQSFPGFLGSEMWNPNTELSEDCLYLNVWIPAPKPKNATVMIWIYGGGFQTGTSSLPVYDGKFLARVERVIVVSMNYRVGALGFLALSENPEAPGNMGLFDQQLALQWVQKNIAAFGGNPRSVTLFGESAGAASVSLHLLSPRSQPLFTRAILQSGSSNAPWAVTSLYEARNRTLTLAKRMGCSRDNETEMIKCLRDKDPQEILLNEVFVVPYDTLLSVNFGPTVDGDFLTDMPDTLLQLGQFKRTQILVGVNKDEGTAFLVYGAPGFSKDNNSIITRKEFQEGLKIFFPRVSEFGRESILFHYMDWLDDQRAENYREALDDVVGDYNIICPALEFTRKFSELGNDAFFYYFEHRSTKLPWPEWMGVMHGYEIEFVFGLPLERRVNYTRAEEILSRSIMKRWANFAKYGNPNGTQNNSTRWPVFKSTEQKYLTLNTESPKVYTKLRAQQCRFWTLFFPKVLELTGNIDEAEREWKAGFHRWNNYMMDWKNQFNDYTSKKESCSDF

With “3-O-β-D-xylopyranosyl-24S,25-dihydroxy-15-oxo-acta-(16R,23R)-16,23-monoxoside [Compound 17]”, the “AChE inhibitory activity at 100 μM (%)” value in test [1] (setting [3]) stood at 47.1 ± 1.6%. Also, the “BuChE inhibitory activity at 100 μM (%)” value in test [2] (setting [3]) is listed as 55.4 ± 0.8%. In addition, the IC50 in test [2] (setting [4]) was 84.1 ± 5.7 µM.

As to `COc1ccc(/C=C/C(=O)OCC(=O)c2ccc(O)c(O)c2)cc1O` [Compound 1, cimiciphenone], the inhibition at 100 µM stood at 65.4 ± 0.9% in test [1] (setting [3]) and 13.6 ± 0.7% in test [2] (setting [3]). In test [1] (Lineweaver-Burk plots), the “Binding mode (AChE)” value was “competitive inhibitor; also recorded: Competitive type (AChE)”. The IC50 in test [1] (setting [5]) worked out at 16.7 ± 1.9 µM. In test [1] (secondary replot), this compound came in with a Ki of 16.2 ± 0.9 µM.

With `COC(=O)/C=C/c1ccc(O)c(OC)c1` [Compound 2, ferulic acid methyl ester], the inhibition at 100 µM came out at 58 ± 0.6% in test [1] (setting [3]) and 62.3 ± 0.3% in test [2] (setting [3]). The values for the IC50 in test [1] (setting [5]) and in test [2] (setting [4]) were 52.4 ± 3.7 µM and 37.1 ± 1.5 µM, respectively.

In the case of `CC(C)=CC=C1C(=O)N(C)c2ccccc21` [Compound 3, (E)-3‐(3′-methyl-2′-butenylidene)-1-methyl-2-indolinone], the inhibition at 100 µM in test [1] (setting [3]) worked out at 53.8 ± 0.1%; in test [2] (setting [3]), 88.7 ± 1.3%. Also, the values for the IC50 in test [1] (setting [5]) and in test [2] (setting [4]) were 95.8 ± 5.1 µM and 13.8 ± 1.2 µM, respectively. The “Binding mode (BuChE)” value in test [2] is recorded as “noncompetitive mode; also recorded: Non-competitive type (BuChE)”. Besides, in test [2] (setting [6]), the Ki turned out to be 4.9 ± 2.1 µM.

In the case of `CC(C)=CC=C1C(=O)Nc2ccccc21` [Compound 4, (E)-3‐(3′-methyl-2′-butenylidene)-2-indolinone], the inhibition at 100 µM is 61 ± 4.6% in test [1] (setting [3]) and 93.1 ± 0.6% in test [2] (setting [3]). Moreover, the IC50 in test [1] (setting [5]) is 48 ± 6.8 µM; in test [2] (setting [4]), 6.5 ± 2.5 µM. Besides, the “Binding mode (BuChE)” value in test [2] is on record as “noncompetitive mode; also recorded: Non-competitive type (BuChE)”. The Ki in test [2] (setting [6]) stood at 3.5 ± 1.5 µM.

As for `C[C@@H]1C[C@H]2O[C@]3(O[C@@H]2C(C)(C)O)[C@H]1[C@@]1(C)CC[C@@]24C[C@@]25CC[C@H](O)C(C)(C)[C@@H]5CC=C4[C@]1(C)[C@H]3O` [Compound 5, 7,8-didehydrocimigenol], the inhibition at 100 µM in test [1] turned out to be 43.1 ± 5.6%. In test [2], the IC50 came to 60.9 ± 1.2 µM and the inhibition at 100 µM amounted to 53.6 ± 0.9%.

Take `CC(=O)O[C@@H]([C@H]1C[C@@H](C)[C@H]2[C@@](O)(O1)[C@H](O)[C@@]1(C)C3=CC[C@H]4C(C)(C)[C@@H](O)CC[C@@]45C[C@@]35CC[C@]21C)C(C)(C)O` [Compound 6, 24-epi-24-O-acetyl-7,8-didehydroshengmanol]: the figures for the IC50 in test [1] and in test [2] were 94.9 ± 3.5 µM and 90.9 ± 6 µM, respectively. Further, the inhibition at 100 µM in test [1] came to 53.7 ± 1.6%; in test [2], 57.3 ± 0.3%.

Compound `CC(=O)O[C@@H]1C[C@@]23C[C@@]24CC[C@H](O)C(C)(C)[C@@H]4CC=C3[C@]2(C)C[C@@H]3O[C@]4(C[C@@H](C)[C@@H]3[C@@]12C)O[C@H](O)[C@@]1(C)O[C@@H]41` [Compound 7, 25-triepoxy-12β-acetoxy-3β,26-dihydroxy-9,19-cyclolanost-7-ene] gave an IC50 in test [1] of 92.1 ± 2.2 µM. In addition, the values for the inhibition at 100 µM in test [1] and in test [2] were 52 ± 0.1% and 41 ± 0.1%, respectively.

Consider `CC(=O)OC(C)(C)C1OC23OC1CC(C)C2C1(C)CCC24CC25CCC(O)C(C)(C)C5CC=C4C1(C)C3O` (stereo not shown) [Compound 8, 25-O-acetyl-7,8-didehydrocimigenol], for which, in test [1], the IC50 was 69.5 ± 1.2 µM and the inhibition at 100 µM came to 55.4 ± 2.6%. The inhibition at 100 µM in test [2] came to 18 ± 0.4%.

As for `C=C(C)C1OC23OC1CC(C)C2C1(C)CCC24CC25CCC(O)C(C)(C)C5CC=C4C1(C)C3O` (stereo not shown) [Compound 9, 25-anhydro-7,8-didehydrocimigenol], the inhibition at 100 µM in test [1] is 48.6 ± 0.6%. Besides, in test [2], the IC50 is 35.1 ± 1.2 µM and the inhibition at 100 µM was found to be 51 ± 1.9%.

For `CC1CC2OC3(OC2C(C)(C)O)C1C1(C)CCC24CC25CCC(O)C(C)(C)C5CC=C4C1(C)C3O` (stereo not drawn) [Compound 10, 24-epi-7,8-didehydrocimigenol], the inhibition at 100 µM in test [1] was 31.8 ± 0.5%; in test [2] it was 41.1 ± 2.2%.

Take `CC(=O)OC(C)(C)[C@H]1O[C@@]23O[C@@H]1C[C@@H](C)[C@@H]2[C@@]1(C)CC[C@@]24C[C@@]25CC[C@H](O)C(C)(C)[C@@H]5CC[C@H]4[C@]1(C)[C@H]3O` [Compound 11, 25-O-acetylcimigenol]: the figures for the inhibition at 100 µM in test [1] and in test [2] were 15.8 ± 4.3% and 14 ± 2.6%, respectively.

For the compound `CC(=O)O[C@H]([C@H]1C[C@@H](C)[C@H]2[C@@](O)(O1)[C@H](O)[C@@]1(C)C3=CC[C@H]4C(C)(C)[C@@H](O)CC[C@@]45C[C@@]35CC[C@]21C)C(C)(C)O` [Compound 12, 24-epi-24-O-acetyl-7,8-didehydroshengmanol], the inhibition at 100 µM in test [1] was 28 ± 4%; in test [2], 18.6 ± 0.3%.

As to `C=C(C)[C@H]1O[C@@]23O[C@@H]1C[C@@H](C)[C@@H]2[C@@]1(C)CC[C@@]24C[C@@]25CC[C@H](O)C(C)(C)[C@@H]5CC=C4[C@]1(C)[C@H]3O` [Compound 13, 25-anhydrocimigenol], the inhibition at 100 µM in test [1] was found to be 42.8 ± 0.8%; in test [2], 44.9 ± 1.1%.

As for `CC(=O)OC(C)(C)C1OC23OC1CC(C)C2C1(C)CCC24CC25CCC(OC2OCC(O)C(O)C2O)C(C)(C)C5CC=C4C1(C)C3O` [Compound 14, 25-O-acetyl-7,8-didehydrocimigenol 3-O-β-D-xylopyranoside], the inhibition at 100 µM in test [1] is 24.9 ± 6.2%. In test [2], it took 22.6 ± 0.4 µM to reach half-maximal inhibition (IC50), the Ki was 10.7 ± 1.3 µM, the “Binding mode (BuChE)” value is on record as “competing with substrate; also recorded: Competitive type (BuChE)” and the inhibition at 100 µM stood at 55 ± 0.7%.

For the compound `C=C(C)[C@H]1O[C@@]23O[C@@H]1C[C@@H](C)[C@@H]2[C@@]1(C)CC[C@@]24C[C@@]25CC[C@H](O[C@@H]2OC[C@@H](O)[C@H](O)[C@H]2O)C(C)(C)[C@@H]5CCC4[C@]1(C)[C@H]3O` (stereo partly drawn) [Compound 15, 25-anhydrocimigenol-3-O-β-D-xylopyranoside], in test [1], the inhibition at 100 µM came out at 37.1 ± 0.5%. Moreover, in test [2], 33.3 ± 5 µM corresponded to half-maximal inhibition (IC50) and the inhibition at 100 µM worked out at 60.7 ± 0.6%.

`CC1CC2OC3(OC2C(C)(C)O)C1C1(C)CCC24CC25CCC(OC2OCC(O)C(O)C2O)C(C)(C)C5CC=C4C1(C)C3O` [Compound 16, 24-epi-7,8-didehydrocimigenol 3-O-β-D-xylopyranoside]: the inhibition at 100 µM in test [1] was 19 ± 2.5%; in test [2], 62 ± 0.8%. In test [2], this compound had an IC50 of 31 ± 5.5 µM.

As for `CC(=O)OC1C(OC2CCC34CC35CCC3(C)C6C(C)CC7OC6(OC7C(C)(C)O)C(O)C3(C)C5=CCC4C2(C)C)OCC(O)C1O` (stereo not shown) [Compound 18, cimiricaside A], the inhibition at 100 µM in test [1] stood at 23.1 ± 6.8%. Further, in test [2], the IC50 was determined as 51 ± 0.5 µM and the inhibition at 100 µM amounted to 54.4 ± 1.3%.

`C=C(C)C1OC23OC1CC(C)C2C1(C)CCC24CC25CCC(OC2OCC(O)C(O)C2O)C(C)(C)C5CC=C4C1(C)C3O` [Compound 19, 7,8-didehydro-25-anhydrocimigenol-3-O-β-D-xylopyranoside]: the results for the inhibition at 100 µM in test [1] and in test [2] were 21.5 ± 1.7% and 38.5 ± 0.1%, respectively.
